{"source": "patent US20220030866A1", "about": "“CONJUGATES OF AUXIN ANALOGS” (The State of Israel, Ministry of Agriculture & Rural …, priority 2019, published 2022)", "type_in_all_cases": "in vivo", "key": {"[1]": {"system": "Arabidopsis seedlings", "assay": "adventitious root formation in intact etiolated Arabidopsis seedlings", "conditions": "intact etiolated seedlings; 50 nM, FIG. 17 legend 10 μM for one hour", "method": "Adventitious roots (ARs) were induced in intact plants, using previously described procedures [Gutierrez et al., Plant Cell 2009, 21:3119-3132; Abu-Abied et al., Plant J 2012, 71:787-799; Rasmussen et al., Plant Physiol 2012, 158:1976-1987]. Briefly, seeds were germinated on MS/0.8% agar plates supplemented with 3% sucrose. The plates were kept in the dark for 2 days at 4° C., then 5 days at 22° C. in the dark, 2 days in the light, 3 days in the dark and then additional 4 days in the light to complete 2 weeks when roots were counted using a stereoscope. Sensitivity to auxin and/or auxin analogs was determined by following root elongation on vertical plates. The 4-day-old seedlings were transferred to MS plates containing 0.05 or 0.5 μM IAA and the root length was measured after 5 days, including the number of LRs in each root and calculation of the LR density. Each treatment experiment included 10-15 plants and was repeated 3 times.\nIn a third assay utilizing an Arabidopsis model, induction of adventitious root AR formation in intact plants was examined in the presence of 50 nM of tested compounds, which included 5 days incubation in the dark, followed by a shift to the light, according to procedures described by Sorin et al. [Plant Cell 2005, 17:1343-1359].\nConjugates prepared as described herein were evaluated in an Arabidopsis rooting model, according to procedures such as described hereinabove. Seeds were germinated and kept in the dark for 4 days. The etiolated seedlings were then incubated for 1 hour in 10 μM of each compound and then transferred to vertical MS medium-containing plates."}, "[2]": {"system": "DR5:venus marker", "assay": "auxin activity by DR5:venus fluorescence in Arabidopsis plants", "conditions": "10 μM", "method_in_brief": "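Arabidopsis seedlings expressing nuclear DR5:venus, grown four days on MS medium, then transferred to plates with 10 μM compound for 24 h. Nuclear fluorescence imaged by confocal microscopy and averaged per segmented nucleus as auxin-activity readout; MS medium served as negative control.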"}, "[3]": {"system": "Arabidopsis seedlings", "assay": "root elongation inhibition in Arabidopsis seedlings", "conditions": "for effect on root elongation relative to control, in words: after 5 days"}, "[4]": {"system": "mung bean cuttings", "assay": "rooting of mung bean cuttings (number of adventitious roots per cutting)", "conditions": "for effect on AR formation in mung bean cuttings, in words: tested at 2, 10 or 50 μM", "method_in_brief": "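Readout was the number of adventitious roots per cutting in mung bean cuttings. Conjugates of 4-CPA, MCPA and 2-DP were tested alongside unconjugated IBA and 2-DP–glycine methyl ester.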"}, "[5]": {"system": "argan (Argania spinosa) cuttings", "assay": "rooting of argan cuttings", "conditions": "100 μM conjugate with 6000 ppm IBA", "method_in_brief": "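Cuttings in a commercial nursery were treated with 100 μM conjugate plus 6000 ppm IBA. Controls were talc with 8000 ppm IBA and fungicide (T-8), or 6000 ppm IBA alone.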"}, "[6]": {"system": "Arabidopsis seedlings", "assay": "split petri dish assay, separate shoot or root application in etiolated Arabidopsis seedlings", "conditions": "10 μM; for adventitious root formation, exposure of shoots compared to exposure of roots / lateral root formation, shoot application compared with root application: split dish", "excerpt": "The observation that AR enhancement in Eucalyptus cuttings was higher when 4-CPA conjugates were applied also to the leaves (as described in Example 3) prompted further investigation into the functions of shoot-derived 4-CPA. To this end, 4-CPA or Compounds 1p and it were applied specifically to roots or shoots of five-day old etiolated Arabidopsis seedlings using a split petri dish (as depicted in FIG. 26) and the effect on root elongation, lateral root (LR) formation and adventitious root (AR) formation was evaluated.\nArabidopsis plants were germinated and grown in the dark for 5 days, then then transferred to petri dishes with a partition in the middle. Each half of these plates contained either medium alone or with 10 μM of 4-CPA or Compound 1p or 1tl. The etiolated seedlings were put on the plates with their collet region on the partition such that either the hypocotyl and cotyledons, or the root or both were in touch with the medium containing the tested compound. Adventitious roots and lateral roots were counted and the length of the primary root was measured after a week."}, "[7]": {"system": "cuttings from mature Eucalyptus grandis trees", "assay": "rooting of cuttings from mature Eucalyptus grandis trees", "conditions": "100 μM compound by submerging or spraying, with 6000 ppm IBA"}, "[8]": {"conditions": "4 day old seedlings, 5 days on vertical plates"}}, "data": [{"smiles": "COC(=O)[C@@H](Cc1c[nH]c2ccccc12)NC(=O)COc1ccc(Cl)cc1", "note": "[Compound 1s, 4-CPA-D-Trp]", "values": [{"measurement": "adventitious roots formed on average", "setting": "[1]", "value": "0.5±0.3"}, {"measurement": "DR5 fluorescence (auxin activity), in words", "setting": "[2]", "value": "significantly lower fluorescence"}, {"measurement": "effect on root elongation relative to control, in words", "setting": "[3]; 50 nM", "value": "did not affect root elongation"}, {"measurement": "effect on AR formation in mung bean cuttings, in words", "setting": "[4]", "value": "induced rooting to a degree positively correlated with concentration"}, {"measurement": "rooting percentage in argan compared with IBA alone, in words", "setting": "[5]", "value": "considerably higher rooting percentages"}]}, {"smiles": "COC(=O)[C@H](Cc1c[nH]c2ccccc12)NC(=O)COc1ccc(Cl)cc1", "note": "[Compound 1t, 4-CPA-L-Trp]", "values": [{"measurement": "adventitious roots formed on average", "setting": "[1]", "value": "4.7±0.9"}, {"measurement": "effect on root growth of application to the shoot compared with application directly to the root", "setting": "[6]; 24 hours on split dish", "value": "comparable"}, {"measurement": "adventitious root formation, exposure of shoots compared to exposure of roots", "setting": "[6]", "value": "significantly more adventitious root formation"}, {"measurement": "lateral root formation, shoot application compared with root application", "setting": "[6]", "value": "inhibited lateral root formation more efficiently than application to roots"}, {"measurement": "DR5 fluorescence (auxin activity), in words", "setting": "[2]", "value": "the most potent conjugate"}, {"measurement": "effect on root tip and root elongation zone", "setting": "[2]", "value": "loss of auxin activity at the root tip, and swelling of the root elongation zone"}, {"measurement": "effect on root elongation relative to control, in words", "setting": "[3]; 50 nM", "value": "inhibited root elongation relative to control"}, {"measurement": "time course of root elongation inhibition", "setting": "[3]; 50 nM, slight inhibition until day 3, complete from day 4", "value": "biphasic behavior"}, {"measurement": "effect on AR formation in mung bean cuttings, in words", "setting": "[4]", "value": "induced rooting only at low concentrations"}, {"measurement": "rooting in combination with IBA compared with IBA alone, in words", "setting": "[7]", "value": "at least as potent as that of their corresponding D-amino acid conjugates"}, {"measurement": "rooting percentage in argan compared with IBA alone, in words", "setting": "[5]", "value": "considerably higher rooting percentages"}]}, {"smiles": "O=C(O)COc1ccc(Cl)cc1", "note": "[Compound 4-CPA, 4-chloro-phenoxyacetic acid, reference compound]", "values": [{"measurement": "adventitious roots formed on average", "setting": "[1]", "value": "0.8±0.4"}, {"measurement": "adventitious root formation, exposure of shoots compared to exposure of roots", "setting": "[6]", "value": "significantly more adventitious root formation"}, {"measurement": "lateral root formation, shoot application compared with root application", "setting": "[6]", "value": "inhibited lateral root formation more efficiently than application to roots"}, {"measurement": "DR5 fluorescence (auxin activity), in words", "setting": "[2]", "value": "promoted fluorescence most strongly"}, {"measurement": "effect on root tip and root elongation zone", "setting": "[2]", "value": "loss of auxin activity at the root tip, and swelling of the root elongation zone"}, {"measurement": "potency in promoting DR5 fluorescence relative to Compound 1t", "setting": "[2]; fluorescent intensity", "value": "about 2 fold"}, {"measurement": "concentration that inhibited root elongation significantly", "setting": "[3]; [8]", "value": 50, "unit": "nM"}, {"measurement": "concentration that inhibited root elongation totally", "setting": "[3]; [8]", "value": 100, "unit": "nM"}, {"measurement": "appearance of the base of mung bean cuttings", "setting": "[4]; FIGS. 4A, 4B", "value": "appeared swollen, but no AR developed"}, {"measurement": "effect on AR formation in mung bean cuttings, in words", "setting": "[4]", "value": "induced a similar rooting rate only at the lowest tested concentration of 2 μM"}, {"measurement": "rooting in combination with IBA compared with IBA alone, in words", "setting": "[7]", "value": "considerably less effective"}]}]}
